From US20240042046A1, “METHODS AND COMPOUNDS FOR MODULATING HUNTINGTON'S DISEASE” (Design Therapeutics, Inc., priority 2022, published 2024)

Key:
Assay type in all cases: cell-based
[1] = test system: human HTT mRNA, SNP rs362331 C allele, GM09197 fibroblasts; test: Screening of HD molecules in GM09197 fibroblasts, allele-specific HTT mRNA by RT-PCR, C allele; conditions: for GM 09197 E min 48 Hr C Allele (%): Emin = lowest % HTT observed within compound concentration 0.5 nM to 1000 nM; for IC50: Homo sapiens, Fibroblast, 48-hour incubation, C allele HTT mRNA normalized to GAPDH, relative to vehicle
Method: (§1) Molecular Biology Toolkit: • qPCR primer probe sets: • RNA input normalization was assessed utilizing human glyceraldehyde 3-phosphate dehydrogenase (hGAPDH) TaqMan assay (ThermoFisher cat #4351370) or Human Cyclophillin ([…]) TaqMan assay (ThermoFisher cat #4351372) • Total HTT detection was assessed utilizing human Htt TaqMan assay (ThermoFisher cat #4331182) • Allele-specific detection of human HTT expression in HD cells containing the SNP rs362331C/T (Exon 50): for each assay, allele-specific probes to detect the SNP variant contained locked nucleic acid bases to improve allele discrimination, as compared to unmodified DNA probes.
(§2) • qPCR was performed using Agpath ID one-step reverse transcriptase polymerase chain reaction (RT-PCR) reagent
(§3) Screening of HD molecules methods: GM09197 and/or GM04022 fibroblasts were cultured in T175 flasks incubated at 37° C. and 5% CO2. Once confluency was reached, the media was removed, the cells were washed with 1×PBS, and cells were dissociated using TrypLE™ Express Enzyme. Media was added to the enzyme and collected into a 15-mL conical tube and centrifuged at 500×g for 5 minutes to pellet the cells. Media and enzyme were aspirated using a serological pipette. Cells were resuspended in fresh media and counted using a Countess 3 Automated Cell Counter. Cells were plated at a density of 15,000 cells/well in a tissue culture-treated polystyrene 96-well dish and incubated at 37° C. and 5% CO2 overnight. The next day, media was removed using an 8-channel aspirator. 200 μL media/well are added back into the plate. The molecules are formulated to 1 mM and are dispensed using a Multidrop™ Pico 8 Digital Dispenser. After a 48-hour incubation with compounds, media was removed from plates, cells were washed with 1×PBS, and cells were lysed in 40 μL per well guanidinium thiocyanate buffer. RNA was isolated and purified in […] glass fiber column plates using chaotropic salts. Human mtHTT, wtHTT, and GAPDH mRNA were measured via RT-PCR using the ThermoFisher QuantStudio™ 7 Flex System in 384-well format. Results of HTT levels were normalized to GAPDH mRNA levels. Normalized HTT mRNA levels were expressed relative to vehicle-treated samples to assess fold change after molecule treatment.
(§4) Emin for each compound is the lowest % HTT concentration observed within a compound concentration of 0.5 nM to 1000 nM.

[2] = test system: human HTT mRNA, SNP rs362331 C allele, GM04022 fibroblasts; test: Screening of HD molecules in GM04022 fibroblasts, allele-specific HTT mRNA by RT-PCR, C allele; conditions: Emin = lowest % HTT observed within compound concentration 0.5 nM to 1000 nM
Method: as §1, §2
as §3, with “Results of HTT levels were normalized to GAPDH mRNA levels. Normalized HTT mRNA levels were expressed relative to vehicle-treated samples to assess fold change after molecule treatment.” left out

[3] = test system: human HTT mRNA, SNP rs362331 T allele, GM09197 fibroblasts; test: Screening of HD molecules in GM09197 fibroblasts, allele-specific HTT mRNA by RT-PCR, T allele; conditions: for Gm09197 Emin 48 hr T Allele (%): Emin = lowest % HTT observed within compound concentration 0.5 nM to 1000 nM; for IC50: Homo sapiens, Fibroblast, 48-hour incubation, T allele HTT mRNA normalized to GAPDH, relative to vehicle
Method: as §1, §2, §3, §4

[4] = test system: human HTT mRNA, SNP rs362331 T allele, GM04022 fibroblasts; test: Screening of HD molecules in GM04022 fibroblasts, allele-specific HTT mRNA by RT-PCR, T allele; conditions: for GM04022 Emin 48 hr T Allele: Emin = lowest % HTT observed within compound concentration 0.5 nM to 1000 nM; for IC50: Homo sapiens, Fibroblast, 48-hour incubation, T allele HTT mRNA normalized to GAPDH, relative to vehicle
Method: as §1, §2, §3, §4

Row | Structure (SMILES) | GM 09197 E min 48 Hr C Allele (%) [1] | GM 04022Emin 48 hr C Allele [2] | Gm09197 Emin 48 hr T Allele (%) [3] | GM04022 Emin 48 hr T Allele [4] | IC50 [3] [µM] | IC50 [4] [µM] | IC50 [1] [µM]
1 | Cn1cc(NC(=O)c2nc(NC(=O)CCNC(=O)c3cc(NC(=O)c4nccn4C)cn3C)cn2C)cc1C(=O)NCCCC(=O)Nc1cn(C)c(C(=O)NCCC(=O)Nc2cc(C(=O)Nc3cn(C)c(C(=O)NCCC(=O)NCCOCCOCCOCCOCCOCCOCCOCCOCCOCCOCCOCCOCCOCCOCCOCCOc4ccc(NC(=O)c5cc6c(-c7cc(S(C)(=O)=O)ccc7Oc7ccc(F)cc7F)cn(C)c(=O)c6[nH]5)cc4)n3)n(C)c2)n1 [Compound A-2] | A (A>90%) | A (A>90%) | C (C<80%) | C (C<80%) | – | – | –
2 | CCNC(=O)c1cc2c(-c3cc(S(C)(=O)=O)ccc3Oc3ccc(OCCOCCOCCOCCOCCOCCOCCOCCOCCNC(=O)CCNC(=O)c4nc(NC(=O)c5cc(NC(=O)CCNC(=O)c6nc(NC(=O)CCCNC(=O)c7cc(NC(=O)c8nc(NC(=O)CCNC(=O)c9cc(NC(=O)c%10nccn%10C)cn9C)cn8C)cn7C)cn6C)cn5C)cn4C)cc3F)cn(C)c(=O)c2[nH]1 [Compound A-3] | A (A>90%) | A (A>90%) | C (C<80%) | C (C<80%) | 0.0387 | 0.036 | –
3 | CC(=O)N1c2ccc(-c3ccn(-c4ccc(OCCOCCOCCOCCOCCOCCOCCOCCOCCOCCOCCOCCOCCOCCOCCOCCNC(=O)CCNC(=O)c5nc(NC(=O)c6cc(NC(=O)CCNC(=O)c7nc(NC(=O)CCCNC(=O)c8cc(NC(=O)c9nc(NC(=O)CCNC(=O)c%10cc(NC(=O)c%11nccn%11C)cn%10C)cn9C)cn8C)cn7C)cn6C)cn5C)cc4)n3)cc2[C@H](Nc2ccc(C#N)cc2)C[C@@H]1C [Compound A-58] | B (B is 90% to 80%) | – | B (B is 90% to 80%) | – | – | – | –
4 | Cc1noc(C)c1-c1ccc2c(c1)nc(CCc1ccc(OCCOCCOCCOCCOCCNC(=O)CCNC(=O)c3nc(NC(=O)c4cc(NC(=O)CCNC(=O)c5nc(NC(=O)CCCNC(=O)c6cc(NC(=O)c7nc(NC(=O)CCNC(=O)c8cc(NC(=O)c9nccn9C)cn8C)cn7C)cn6C)cn5C)cn4C)cn3C)c(Cl)c1)n2C[C@H](C)N1CCOCC1 [Compound A-52] | C (C<80%) | – | B (B is 90% to 80%) | – | > 1 | – | > 1
5 | CC(=O)Nc1c(F)cc(C(=O)NC2CCC(O)CC2)cc1O[C@@H](C)c1cccc(OCCOCCOCCOCCOCCOCCOCCOCCOCCOCCOCCOCCOCCOCCOCCOCCNC(=O)CCNC(=O)c2nc(NC(=O)c3cc(NC(=O)CCNC(=O)c4nc(NC(=O)CCCNC(=O)c5cc(NC(=O)c6nc(NC(=O)CCNC(=O)c7cc(NC(=O)c8nccn8C)cn7C)cn6C)cn5C)cn4C)cn3C)cn2C)c1 (some centres unmarked) [Compound A-31] | B (B is 90% to 80%) | – | B (B is 90% to 80%) | – | – | – | –
6 | CCS(=O)(=O)Nc1ccc(Oc2ccc(F)cc2F)c(-c2cn(C)c(=O)c3[nH]c(C(=O)Nc4ccc(OCCOCCOCCOCCOCCOCCOCCOCCOCCNC(=O)c5cc(NC(=O)c6nc(NC(=O)c7cc(NC(=O)[C@@H](N)CCNC(=O)c8nc(NC(=O)CCNC(=O)c9cc(NC(=O)c%10nccn%10C)cn9C)cn8C)cn7C)cn6C)cn5C)cc4)cc23)c1 [Compound A-39] | B (B is 90% to 80%) | – | B (B is 90% to 80%) | – | – | – | –
7 | Cc1sc2c(c1C)C(c1ccc(Cl)cc1)=N[C@@H](CC(=O)Nc1ccc(OCCOCCOCCOCCOCCOCCOCCOCCOCCNC(=O)c3cc(NC(=O)c4nc(NC(=O)[C@H](N)CCNC(=O)c5cc(NC(=O)c6nc(NC(=O)CCNC(=O)c7cc(NC(=O)c8nccn8C)cn7C)cn6C)cn5C)cn4C)cn3C)cc1)c1nnc(C)n1-2 [Compound A-35] | A (A>90%) | – | B (B is 90% to 80%) | – | – | – | –
8 | CCS(=O)(=O)Nc1ccc(Oc2ccc(F)cc2F)c(-c2cn(C)c(=O)c3[nH]c(C(=O)Nc4ccc(OCCOCCOCCOCCOCCOCCOCCOCCOCCNC(=O)c5cc(NC(=O)c6nc(NC(=O)[C@H](N)CCNC(=O)c7cc(NC(=O)c8nc(NC(=O)CCNC(=O)c9cc(NC(=O)c%10nccn%10C)cn9C)cn8C)cn7C)cn6C)cn5C)cc4)cc23)c1 [Compound A-21] | A (A>90%) | – | A (A>90%) | – | – | – | –
9 | Cn1cc(NC(=O)c2nc(NC(=O)CCNC(=O)c3cc(NC(=O)c4nccn4C)cn3C)cn2C)cc1C(=O)NCCCC(=O)Nc1cn(C)c(C(=O)NCCC(=O)Nc2cc(C(=O)Nc3cn(C)c(C(=O)NCCC(=O)NCCOCCOCCOCCOCCN4C[C@H](Nc5cnn(C)c(=O)c5Br)C[C@H](c5ccccc5)C4)n3)n(C)c2)n1 [Compound A-47] | C (C<80%) | – | C (C<80%) | – | > 1 | – | > 1
10 | Cc1sc2c(c1C)C(c1ccc(Cl)cc1)=N[C@@H](CC(=O)Nc1ccc(OCCOCCOCCOCCOCCOCCOCCOCCOCCOCCOCCOCCOCCOCCOCCOCCNC(=O)CCNC(=O)c3nc(NC(=O)c4cc(NC(=O)CCNC(=O)c5nc(NC(=O)NCCNC(=O)c6cc(NC(=O)c7nc(NC(=O)CCNC(=O)c8cc(NC(=O)c9nccn9C)cn8C)cn7C)cn6C)cn5C)cn4C)cn3C)cc1)c1nnc(C)n1-2 [Compound A-75] | A (A>90%) | – | A (A>90%) | – | – | – | –
11 | Cc1sc2c(c1C)C(c1ccc(Cl)cc1)=N[C@@H](CC(=O)Nc1ccc(OCCOCCOCCOCCOCCOCCOCCOCCOCCOCCOCCOCCOCCOCCOCCOCCNC(=O)c3cc(NC(=O)c4nc(NC(=O)c5cc(NC(=O)[C@@H](N)CCNC(=O)c6nc(NC(=O)CCNC(=O)c7cc(NC(=O)c8nccn8C)cn7C)cn6C)cn5C)cn4C)cn3C)cc1)c1nnc(C)n1-2 [Compound A-38] | A (A>90%) | – | A (A>90%) | – | – | – | –
12 | CCS(=O)(=O)Nc1ccc(Oc2ccc(F)cc2F)c(-c2cn(C)c(=O)c3[nH]c(C(=O)Nc4ccc(OCCOCCOCCOCCOCCOCCOCCOCCOCCNC(=O)CCNC(=O)c5nc(NC(=O)c6cc(NC(=O)CCNC(=O)c7nc(NC(=O)CCCNC(=O)c8cc(NC(=O)c9nc(NC(=O)CCNC(=O)c%10cc(NC(=O)c%11nccn%11C)cn%10C)cn9C)cn8C)cn7C)cn6C)cn5C)cc4)cc23)c1 [Compound A-5] | A (A>90%) | A (A>90%) | C (C<80%) | C (C<80%) | 0.0098 | 0.002 | –
13 | CC(=O)N1c2ccc(-c3ccn(CCOCCOCCOCCOCCOCCOCCOCCOCCOCCOCCOCCOCCOCCOCCOCCNC(=O)CCNC(=O)c4nc(NC(=O)c5cc(NC(=O)CCNC(=O)c6nc(NC(=O)CCCNC(=O)c7cc(NC(=O)c8nc(NC(=O)CCNC(=O)c9cc(NC(=O)c%10nccn%10C)cn9C)cn8C)cn7C)cn6C)cn5C)cn4C)n3)cc2[C@H](Nc2ccc(C#N)cc2)C[C@@H]1C [Compound A-56] | C (C<80%) | – | C (C<80%) | – | – | – | –
14 | Cc1sc2c(c1C)C(c1ccc(Cl)cc1)=N[C@@H](CC(=O)Nc1ccc(OCCOCCOCCOCCOCCOCCOCCOCCOCCOCCOCCOCCOCCOCCOCCOCCNC(=O)CCNC(=O)c3nc(NC(=O)c4cc(NC(=O)CCNC(=O)c5nc(NC(=O)OCCNC(=O)c6cc(NC(=O)c7nc(NC(=O)CCNC(=O)c8cc(NC(=O)c9nccn9C)cn8C)cn7C)cn6C)cn5C)cn4C)cn3C)cc1)c1nnc(C)n1-2 [Compound A-73] | A (A>90%) | – | A (A>90%) | – | – | – | –
15 | Cn1cc(NC(=O)c2nc(NC(=O)CCNC(=O)c3cc(NC(=O)c4nccn4C)cn3C)cn2C)cc1C(=O)NCCCC(=O)Nc1cn(C)c(C(=O)NCCC(=O)Nc2cc(C(=O)Nc3cn(C)c(C(=O)NCCC(=O)NCCOCCOCCOCCOCCOCCOCCOCCOCCOCCOCCOCCOCCOCCOCCOCCN4C[C@H](Nc5cnn(C)c(=O)c5Br)C[C@H](c5ccccc5)C4)n3)n(C)c2)n1 [Compound A-49] | A (A>90%) | – | A (A>90%) | – | – | – | –
